The record followed here is patent US20100240645A1, “COMBINATION OF CHECKPONIT KINASE (CHK) AND TELANGIECTASIA MUTATED (ATM) INHIBITORS FOR THE TREATMENT OF CANCER” (ASTRAZENECA AB, priority 2007, published 2010).

Where two headings read alike, the source gives them in different places.

In general, IC50 refers to the midpoint of a concentration-inhibition curve.

The test system of one assay is SW620 cell line. Nature of the assay: MTS colorimetric cell viability assay, CHK-ATM combination, SW620. As to conditions: for IC50: Homo sapiens.
In the next assay the test system is NCI-H460dnp53 cell line. The assay can be described thus: MTS colorimetric cell viability assay, CHK-ATM combination, NCI-H460dnp53.

For `NC(=O)Nc1cc(-c2cccc(F)c2)sc1C(=O)N[C@H]1CCCNC1` [CHK inhibitor, 5-(3-Fluoro-phenyl)-3-ureido-thiophene-2-carboxylic acid (S)-piperidin-3-ylamide], the “activity of CHK inhibitor as a single agent at the constant concentration used” value with SW620 cell line (SW620, 0.28 uM, single agent, previously determined) is “no activity”; in the assay with NCI-H460dnp53 cell line (NCI-H460dnp53, 0.33 uM, single agent, previously determined) it was “no activity”.
`CC1CN(CC(=O)Nc2ccc3c(c2)Cc2cccc(-c4cc(=O)cc(N5CCOCC5)o4)c2S3)CC(C)O1` (stereo not shown) [ATM inhibitor, 2-[(2,6)-2,6-dimethylmorpholin-4-yl]-N-[5-(6-morpholin-4-yl-4-oxo-4H-pyran-2-yl)-9H-thioxanthen-2-yl]acetamide]: the IC50 with SW620 cell line (SW-620, 96 h, read-out: IC50 of ATM inhibitor, ATM inhibitor + CHK inhibitor Simultaneous) is 1.9 µM; in the assay on SW620 cell line (SW-620, read-out: IC50 of ATM inhibitor alone), 7 µM; with SW620 cell line (SW-620, read-out: IC50 of ATM inhibitor, ATM inhibitor followed by CHK inhibitor), 3.4 µM; with SW620 cell line (SW-620, read-out: IC50 of ATM inhibitor, CHK inhibitor followed by ATM inhibitor), 6 µM; in the assay on NCI-H460dnp53 cell line (96 h, read-out: IC50 of ATM inhibitor, ATM inhibitor + CHK inhibitor Simultaneous) it was 1.7 µM; with NCI-H460dnp53 cell line (read-out: IC50 of ATM inhibitor alone), over 30 µM. For the same compound, the half-inhibitory concentration (IC50) in the assay on NCI-H460dnp53 cell line (read-out: IC50 of ATM inhibitor, ATM inhibitor followed by CHK inhibitor) came to 3.8 µM; with NCI-H460dnp53 cell line (read-out: IC50 of ATM inhibitor, CHK inhibitor followed by ATM inhibitor), 4.4 µM.
